PubChem BioAssay AID1963976 (Molecular Pharmacology Branch, DTP, NCI, 2024)

Tested on: 435261-313-R-J1-PDC tumor spheroid viability
Experiment: Anticancer human tumor 435261-313-R-J1-PDC patient-derived colon adenocarcinoma cell line growth inhibition [PI3K]
Details: spheroids with HUVEC and MSC; for IC50: curve of first compound; for viability, T/C: stronger effect = lower value
Summary of the method: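 Spheroid viability read-out. Co-cultures contained the tumor line plus HUVEC and human MSCs. Each agent was paired with a PI3K inhibitor (inavolisib, alpelisib, duvelisib, copanlisib) across half-log dilutions starting at clinical Cmax, or at 10 microM when Cmax was unknown.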
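Note: spheroids exposed to compounds for 7 days.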

`CNC(=O)c1ccc(N2C(=S)N(c3ccc(C#N)c(C(F)(F)F)c3)C(=O)C2(C)C)cc1F` + COc1c(OCCCN2CCOCC2)ccc2c3n(c(=NC(=O)c4cnc(N)nc4)nc12)CCN3 showed an IC50 (second compound 0.00316 µM) of 8990 nM, an IC50 (second compound 0.01 µM) of under 31.6 nM and an IC50 (second compound 0.0316 µM) of under 31.6 nM. It also gave an IC50 (second compound 0.1 µM) of under 31.6 nM, an IC50 (second compound 0.316 µM) of under 31.6 nM and an IC50 (second compound 1 µM) of under 31.6 nM. It also gave a viability, T/C (second compound 0.00316 µM, first compound 0.0316 µM) of 71.2%, a viability, T/C (second compound 0.00316 µM, first compound 0.1 µM) of 80.3% and a viability, T/C (second compound 0.00316 µM, first compound 0.316 µM) of 40.8%. The viability, T/C (second compound 0.00316 µM, first compound 1 µM) was 63.6%, the viability, T/C (second compound 0.00316 µM, first compound 3.16 µM) was 66.3% and the viability, T/C (second compound 0.00316 µM, first compound 10 µM) was 42.7%. The viability, T/C (second compound 0.01 µM, first compound 0.0316 µM) was 33.4%, the viability, T/C (second compound 0.01 µM, first compound 0.1 µM) was 46.7% and the viability, T/C (second compound 0.01 µM, first compound 0.316 µM) was 51.3%. The viability, T/C (second compound 0.01 µM, first compound 1 µM) was 48.2%, the viability, T/C (second compound 0.01 µM, first compound 3.16 µM) was 45.4% and the viability, T/C (second compound 0.01 µM, first compound 10 µM) was 39.7%. For the same molecule, the viability, T/C (second compound 0.0316 µM, first compound 0.0316 µM) was 33.8%, the viability, T/C (second compound 0.0316 µM, first compound 0.1 µM) was 29.1% and the viability, T/C (second compound 0.0316 µM, first compound 0.316 µM) was 29.9%. It also gave a viability, T/C (second compound 0.0316 µM, first compound 1 µM) of 27.3%, a viability, T/C (second compound 0.0316 µM, first compound 3.16 µM) of 23% and a viability, T/C (second compound 0.0316 µM, first compound 10 µM) of 22.4%. The viability, T/C (second compound 0.1 µM, first compound 0.0316 µM) was 16.1%, the viability, T/C (second compound 0.1 µM, first compound 0.1 µM) was 13.9% and the viability, T/C (second compound 0.1 µM, first compound 0.316 µM) was 14.9%. For the same molecule, the viability, T/C (second compound 0.1 µM, first compound 1 µM) was 15%, the viability, T/C (second compound 0.1 µM, first compound 3.16 µM) was 15.4% and the viability, T/C (second compound 0.1 µM, first compound 10 µM) was 15.3%. The viability, T/C (second compound 0.316 µM, first compound 0.0316 µM) was 8.96%, the viability, T/C (second compound 0.316 µM, first compound 0.1 µM) was 8.69% and the viability, T/C (second compound 0.316 µM, first compound 0.316 µM) was 7.55%. For the same molecule, the viability, T/C (second compound 0.316 µM, first compound 1 µM) was 9.53%, the viability, T/C (second compound 0.316 µM, first compound 3.16 µM) was 7.67% and the viability, T/C (second compound 0.316 µM, first compound 10 µM) was 8.88%. The viability, T/C (second compound 1 µM, first compound 0.0316 µM) was 4.12%, the viability, T/C (second compound 1 µM, first compound 0.1 µM) was 4.26% and the viability, T/C (second compound 1 µM, first compound 0.316 µM) was 4.87%. It also gave a viability, T/C (second compound 1 µM, first compound 1 µM) of 4.38%, a viability, T/C (second compound 1 µM, first compound 3.16 µM) of 5.02% and a viability, T/C (second compound 1 µM, first compound 10 µM) of 5.37%.
`Cn1cnc2c(F)c(Nc3ccc(Br)cc3Cl)c(C(=O)NOCCO)cc21` + COc1c(OCCCN2CCOCC2)ccc2c3n(c(=NC(=O)c4cnc(N)nc4)nc12)CCN3 showed an IC50 (second compound 0.00316 µM) of under 9.49 nM, an IC50 (second compound 0.01 µM) of under 9.49 nM and an IC50 (second compound 0.0316 µM) of under 9.49 nM. It also gave an IC50 (second compound 0.1 µM) of under 9.49 nM, an IC50 (second compound 0.316 µM) of under 9.49 nM and an IC50 (second compound 1 µM) of under 9.49 nM. The viability, T/C (second compound 0.00316 µM, first compound 0.00949 µM) was 29.7%, the viability, T/C (second compound 0.00316 µM, first compound 0.03 µM) was 25.4% and the viability, T/C (second compound 0.00316 µM, first compound 0.0949 µM) was 20.5%. For the same molecule, the viability, T/C (second compound 0.00316 µM, first compound 0.3 µM) was 19%, the viability, T/C (second compound 0.00316 µM, first compound 0.949 µM) was 19.1% and the viability, T/C (second compound 0.00316 µM, first compound 3 µM) was 14.2%. The viability, T/C (second compound 0.01 µM, first compound 0.00949 µM) was 24.2%, the viability, T/C (second compound 0.01 µM, first compound 0.03 µM) was 20.6% and the viability, T/C (second compound 0.01 µM, first compound 0.0949 µM) was 22.4%. The viability, T/C (second compound 0.01 µM, first compound 0.3 µM) was 17.8%, the viability, T/C (second compound 0.01 µM, first compound 0.949 µM) was 16.4% and the viability, T/C (second compound 0.01 µM, first compound 3 µM) was 9.17%. It also gave a viability, T/C (second compound 0.0316 µM, first compound 0.00949 µM) of 30.9%, a viability, T/C (second compound 0.0316 µM, first compound 0.03 µM) of 16.9% and a viability, T/C (second compound 0.0316 µM, first compound 0.0949 µM) of 14.4%. The viability, T/C (second compound 0.0316 µM, first compound 0.3 µM) was 11.1%, the viability, T/C (second compound 0.0316 µM, first compound 0.949 µM) was 11.4% and the viability, T/C (second compound 0.0316 µM, first compound 3 µM) was 3.71%. It also gave a viability, T/C (second compound 0.1 µM, first compound 0.00949 µM) of 8.18%, a viability, T/C (second compound 0.1 µM, first compound 0.03 µM) of 7.27% and a viability, T/C (second compound 0.1 µM, first compound 0.0949 µM) of 7.24%. It also gave a viability, T/C (second compound 0.1 µM, first compound 0.3 µM) of 6.07%, a viability, T/C (second compound 0.1 µM, first compound 0.949 µM) of 3.14% and a viability, T/C (second compound 0.1 µM, first compound 3 µM) of 0.52%. The viability, T/C (second compound 0.316 µM, first compound 0.00949 µM) was 2.98%, the viability, T/C (second compound 0.316 µM, first compound 0.03 µM) was 2.65% and the viability, T/C (second compound 0.316 µM, first compound 0.0949 µM) was 1.65%. The viability, T/C (second compound 0.316 µM, first compound 0.3 µM) was 0.71%, the viability, T/C (second compound 0.316 µM, first compound 0.949 µM) was 0.32% and the viability, T/C (second compound 0.316 µM, first compound 3 µM) was 0.75%. It also gave a viability, T/C (second compound 1 µM, first compound 0.00949 µM) of 0.94%, a viability, T/C (second compound 1 µM, first compound 0.03 µM) of 0.62% and a viability, T/C (second compound 1 µM, first compound 0.0949 µM) of 0.53%. The viability, T/C (second compound 1 µM, first compound 0.3 µM) was 0.36%, the viability, T/C (second compound 1 µM, first compound 0.949 µM) was 0.26% and the viability, T/C (second compound 1 µM, first compound 3 µM) was 0.49%.
